Where “and” joins values, the source holds several entries; their conditions need not be identical. Identical values can stand only once. Marks after values point to notes of the source that are not given here.
Key:
[1] = system: explants of adipose tissues; test: Slimming effect: glycerol released in culture medium of adipose tissue explants; assay type: cell-based, human
Procedure: The activity of the compounds of the invention on the adipocytes has been assessed. To do so, tests have been carried out on explants of adipose tissues that are kept alive according to the following experimental protocol. The products to be tested are introduced in the culture medium. After 9 days of treatment, the activity is assessed through an assay of the glycerol released in the culture medium. In order to be able to compare the potential activity of the molecules, caffeine (Sigma ref C-0750 batch 127F0396), which is known for its activity on the adipocytes (Studlar M. […] The explants are prepared from a tummy tuck ([…]-AB-40) carried out on a donor. 54 explants of tissues have been prepared and kept alive in a medium which is supplemented with penicillin/streptomycin antibiotics (Gibco ref 15140 batch 918578) at 37° C. and with 5% of CO2. The treatment has been carried out, on 3 explants, by incorporating 100 μl of the product (which is in turn at a 2% concentration in the adequate solvent, DMSO) in 2 ml of the culture medium on days J0, J2, J3, J5 and J7. Caffeine has been diluted to the desired concentration in the culture medium on these same days. The control explants have undergone no treatment. On J0, the 3 explants have been collected and frozen at -80° C. On J9, the remaining explants have been collected and preserved under the same conditions. The extraction of lipids from the culture medium has been carried out according to a tested procedure. The assay of the glycerol of the culture medium has been carried out using a glycerol assay kit (Megazyme, K-GROL) in the form of 96-well microplates and reading has been made at 340 nm with a Tecam Infinite M200 microplate reader associated to the Magellan software.

[2] = system: normal human dermal fibroblasts; test: Production of type I pro-collagen in monolayer cultures of normal human dermal fibroblasts (E.I.A.); assay type: cell-based; conditions: 48 hours; for Procollagen Difference (%): vs DMSO
Procedure: (§1) The test system consists of monolayers of adult normal human dermal fibroblasts obtained by cultivating cells collected from a tummy tuck carried out on a person.
The used reference activator is the Transforming Growth Factor β (TGF-β) at 1 ng/ml. […]
(§2) The compound to be tested is solubilized in 1 mg/ml in DMSO, then diluted in the cells incubation medium, with a constant concentration of 0.1% (v/v) in DMSO.
Upon completion of the incubation period, the type I pro-collagen contained in the fibroblasts incubation media has been quantified using a sensitive and specific E.I.A. kit.
Upon completion of the incubation period, the proteins contained in the cellular lysates have been quantified by a spectrophotometric method (Bradford method—Bradford M. (1976) Anal. Biochem., 72, 248-254).
(§3) The statistical significance of the differences that have been observed between the <<Control>> and the <<reference product>> conditions, has been assessed through a Student test. The statistical significance of the differences that have been observed between the <<Check>> and the <<test products>> conditions, has been assessed through a one-way analysis of variance (One Way ANOVA) followed by a Holm-Sidak test (*:p<0.05).
The results are given in the form of μg of type I pro-collagen per mg of protein (average+/− the standard deviation, S.D.) and are reported in the following Table 5.

[3] = system: normal human dermal fibroblasts; test: Production of progerin in monolayer cultures of normal human dermal fibroblasts (ELISA); assay type: cell-based; conditions: for Progerin % DMSO / Progerin Average / Progerin, individual values / Progerin Difference (%): 96 hours; for Progerin Difference (%): vs DMSO; for neo synthesis of progerin: under the retained experimental conditions
Text: In order to study the influence of the compounds of the invention on the concentration of progerin in the cells, the assay method described by C. Verdy, J.-E. Branka and N. Mekideche in <<Quantitative assessment of lactate and progerine production in normal human cutaneous cells during normal ageing: effect of an alaria esculenta extract>>, Int. J. Cosmetic Science, 2011, 1-5, has been used.
as §1
Insulin at 10 nM has been used as a reference product in this study. […]
as §2
Upon completion of the incubation period, on the one hand, the progerin has been quantified in the cellular lysates (obtained by ultrasonic action) through a sensitive and specific ELISA assay, and on the other hand, the proteins that are contained in the cellular lysates have been quantified by a spectrophotometric method (Bradford method—Bradford M. (1976) Anal. Biochem., 72, 248-254).
as §3

With COc1cc(/C=C/C(=O)Oc2cc(C)ccc2C(C)C)cc(OC)c1OC(C)=O [Compound 8, 4-acetoxy-3,5-dimethoxy cinnamate of 2-isopropyl-5-methyl phenyl] the melting point was 143 °C.

For Cn1c(=O)c2c(ncn2C)n(C)c1=O [Caffeine, caffeine, reference compound], the “Glycerol % in comparison with caffeine” value ([1]; after 9 days of treatment) was 100% and the “Glycerol Average” value ([1]; glycerol released in culture medium after 9 days, 100 μl of 2% product in DMSO in 2 ml medium on J0, J2, J3, J5, J7, 3 explants) was 0.096 mg/mL.

For COc1cc(/C=C/C(=O)Oc2coc(CO)cc2=O)cc(OC)c1OC(C)=O [Compound 10], the “Procollagen % DMSO” value ([2]; 10 ng/ml) was 104.6%, the “Procollagen Average” value ([2]; 10 ng/ml) was 54.9 pg/mg of protein and the “Procollagen, individual values” ([2]; 10 ng/ml) was 45.6 pg/mg of protein and 48.7 pg/mg of protein and 70.3 pg/mg of protein. The “Procollagen Difference (%)” value ([2]; 10 ng/ml) was 4.6%, the “Procollagen % DMSO” value ([2]; 100 ng/ml) was 150.2% and the “Procollagen Average” value ([2]; 100 ng/ml) was 78.8* pg/mg of protein. For the same compound, the “Procollagen, individual values” ([2]; 100 ng/ml) was 74.0 pg/mg of protein and 75.9 pg/mg of protein and 86.4 pg/mg of protein, the “Procollagen Difference (%)” value ([2]; 100 ng/ml) was 50.2% and the “Procollagen % DMSO” value ([2]; 500 ng/ml) was 175.3%. For the same compound, the “Procollagen Average” value ([2]; 500 ng/ml) was 91.9* pg/mg of protein, the “Procollagen, individual values” ([2]; 500 ng/ml) was 90.6 pg/mg of protein and 95.4 pg/mg of protein and 89.8 pg/mg of protein and the “Procollagen Difference (%)” value ([2]; 500 ng/ml) was 75.3%. For the same compound, the “Progerin % DMSO” value ([3]; 50 ng/ml) was 23.8%, the “Progerin Average” value ([3]; 50 ng/ml) was 264.1* ng/mg of protein and the “Progerin, individual values” ([3]; 50 ng/ml) was 274.9 ng/mg of protein and 225.1 ng/mg of protein and 292.3 ng/mg of protein. The “Progerin Difference (%)” value ([3]; 50 ng/ml) was −76.2%, the “Progerin % DMSO” value ([3]; 500 ng/ml) was 26.1% and the “Progerin Average” value ([3]; 500 ng/ml) was 289.6* ng/mg of protein. For the same compound, the “Progerin, individual values” ([3]; 500 ng/ml) was 301.7 ng/mg of protein and 296.1 ng/mg of protein and 271.0 ng/mg of protein, the “Progerin Difference (%)” value ([3]; 500 ng/ml) was −73.9% and the “Progerin % DMSO” value ([3]; 5000 ng/ml) was 26.2%. For the same compound, the “Progerin Average” value ([3]; 5000 ng/ml) was 291.4* ng/mg of protein, the “Progerin, individual values” ([3]; 5000 ng/ml) was 261.2 ng/mg of protein and 245.9 ng/mg of protein and 366.9 ng/mg of protein and the “Progerin Difference (%)” value ([3]; 5000 ng/ml) was −73.8%. For the same compound, the “neo synthesis of progerin” value [3] was “significantly decrease”.

With COc1cc(/C=C/C(=O)Oc2ccc(CCO)cc2)cc(OC)c1OC(C)=O [Compound 2] the “Progerin % DMSO” value ([3]; 10 ng/ml) was 25.8%, the “Progerin Average” value ([3]; 10 ng/ml) was 286.9* ng/mg of protein and the “Progerin, individual values” ([3]; 10 ng/ml) was 233.7 ng/mg of protein and 353.5 ng/mg of protein and 273.6 ng/mg of protein. For the same compound, the “Progerin Difference (%)” value ([3]; 10 ng/ml) was −74.2%, the “Progerin % DMSO” value ([3]; 100 ng/ml) was 23.1% and the “Progerin Average” value ([3]; 100 ng/ml) was 256.4* ng/mg of protein. For the same compound, the “Progerin, individual values” ([3]; 100 ng/ml) was 170.6 ng/mg of protein and 196.3 ng/mg of protein and 402.4 ng/mg of protein, the “Progerin Difference (%)” value ([3]; 100 ng/ml) was −76.9% and the “Progerin % DMSO” value ([3]; 500 ng/ml) was 26.4%. The “Progerin Average” value ([3]; 500 ng/ml) was 293* ng/mg of protein, the “Progerin, individual values” ([3]; 500 ng/ml) was 300.1 ng/mg of protein and 328.4 ng/mg of protein and 250.5 ng/mg of protein and the “Progerin Difference (%)” value ([3]; 500 ng/ml) was −73.6%. The “neo synthesis of progerin” value [3] was “significantly decrease”.

— patent publication US9463338B2, “Derivatives of the sinapinic acid” (PHARMASYNTHESE, priority 2013, dated 2016)
